One experiment concerns the target T1, NSUN6 (Homo sapiens, UniProt Q8TEA1).
T1 construct: host or cells: E. coli Rosetta2
T1 sequence (Q8TEA1 1-469): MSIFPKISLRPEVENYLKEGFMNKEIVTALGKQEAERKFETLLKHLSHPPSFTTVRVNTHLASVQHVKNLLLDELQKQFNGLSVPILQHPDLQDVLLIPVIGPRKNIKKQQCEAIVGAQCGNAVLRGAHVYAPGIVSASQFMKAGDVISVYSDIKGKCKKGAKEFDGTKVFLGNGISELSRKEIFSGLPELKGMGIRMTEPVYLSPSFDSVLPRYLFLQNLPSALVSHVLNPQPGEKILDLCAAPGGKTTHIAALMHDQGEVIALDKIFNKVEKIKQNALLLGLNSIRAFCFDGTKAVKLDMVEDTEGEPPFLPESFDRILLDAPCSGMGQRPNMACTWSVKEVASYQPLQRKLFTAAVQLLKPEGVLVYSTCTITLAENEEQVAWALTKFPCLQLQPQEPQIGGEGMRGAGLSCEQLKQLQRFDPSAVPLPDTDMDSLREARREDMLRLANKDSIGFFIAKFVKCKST
Briefly: Microscale thermophoresis (MST) binding assay, NSUN6. The note with it: for Kd: MST dose-response curve; for MST pre-screening: ligand concentration 33, 100, 300 µM. How it is done: (§1) Since the constructs of DNMT2 and NSUN6 contain hexa-histidine tags, proteins were labeled using a Monolith His-Tag Labeling Kit RED-Tris-NTA 2nd generation according to the manufacturer’s instructions. This labeling strategy was chosen since it should prevent any interference with the actual binding site of the proteins. Labeled protein was diluted to a concentration of 20 nM into MST buffer (50 mM Hepes, pH 7.5, 150 mM NaCl, 10 mM MgCl2, 1 mM DTT, 0.05% polysorbate-20, 0.1% PEG-8000). All compounds were prepared as stocks dissolved in DMSO to a concentration of 50 mM. […] All measurements were performed on a Monolith Pico instrument (NanoTemper Technologies, Muenchen, Germany) with red light. To induce thermophoresis, medium MST power was selected for DNMT2 and high MST power for NSUN6. All experiments were performed in quadruplicates. […] Obtained dilutions were then mixed 1:1 with labeled protein (20 nM) and incubated for 5 min at room temperature prior to measurement. Experiments were performed in duplicates. All data received were analyzed using the MO. Affinity Analysis software version 2.3 (NanoTemper Technologies, Muenchen, Germany).

For another experiment, the target named is T2, DNMT2 (Homo sapiens, UniProt O14717).
T2 construct: made in house; host or cells: E. coli Rosetta2
T2 sequence (O14717 1-391): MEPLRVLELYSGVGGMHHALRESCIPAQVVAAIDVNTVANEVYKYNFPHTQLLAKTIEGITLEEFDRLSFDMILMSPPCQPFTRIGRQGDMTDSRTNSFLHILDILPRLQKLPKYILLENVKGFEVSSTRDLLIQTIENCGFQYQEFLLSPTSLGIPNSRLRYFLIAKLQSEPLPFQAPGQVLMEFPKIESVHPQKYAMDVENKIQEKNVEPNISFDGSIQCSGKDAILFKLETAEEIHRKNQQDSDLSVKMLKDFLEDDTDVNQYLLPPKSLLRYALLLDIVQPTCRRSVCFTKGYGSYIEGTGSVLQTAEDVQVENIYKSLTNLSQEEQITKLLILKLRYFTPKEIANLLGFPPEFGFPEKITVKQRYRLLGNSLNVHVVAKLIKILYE
Description: Microscale thermophoresis (MST) binding assay, DNMT2. The note with it: for MST pre-screening: DNMT2, ligand concentration 33, 100, 300 µM. The procedure:
as §1

Setting [1] is: NSUN6, ≥ = lower limit, upper plateau not completely reached, read-out: KD,app.

This is an account of results in paper PMC10094593, “Chemical Space Virtual Screening against Hard-to-Drug RNA Methyltransferases DNMT2 and NSUN6” (International Journal of Molecular Sciences, 2023).

SMILES strings stand for the structures. Read-outs that look alike come from different tables or passages of the source.

As for `CN1CCN(CC[C@@H](N)C(=O)Nc2ccc(-n3ccc(O)n3)c(F)c2)CC1` (racemic) [Compound 2.1], the Kd at NSUN6 (setting [1]) is ≥ 369 µM. The MST pre-screening entry on NSUN6 (NSUN6) is recorded as “concentration-dependent MST-shift (binding)”. Consider `Cn1cnc([C@@H]2CNC[C@H]2C(=O)N2CCC[C@@H](CNC(=O)[C@H]3CCCN3)C2)c1` (racemic) [Compound 2.4], for which, at NSUN6 (setting [1]), the Kd was 16.4 µM. The MST pre-screening result at NSUN6 (NSUN6) is listed as “concentration-dependent MST-shift (binding)”. For the compound `Cc1n[nH]c(C)c1NC(=O)CN1CCN(C(=O)c2ccc(C(N)=O)s2)CC1` [Compound 1.2], the MST pre-screening result on DNMT2 is reported as “no concentration-dependent MST-shift (no binding)”.

Turning to `CNC(=O)c1cccc(CN[C@H]2CCCN(C(=O)c3coc(C(N)=O)c3)C2)c1` [Compound 1.3], the MST pre-screening entry on DNMT2 is listed as “no concentration-dependent MST-shift (no binding)”.

`O=C(NCCN/C(O)=C1\N=CC=CC1=O)Nc1cccc2c1CNC2=O` [Compound 1.4]: the Kd on NSUN6 (setting [1]) was determined as 12 µM.

As for `CNC(=O)c1cccc(CN2CCC[C@H](NC(=O)c3coc(C(N)=O)c3)C2)c1` [Compound 1.5], at DNMT2, the MST pre-screening result is given as “no concentration-dependent MST-shift (no binding)”. As to `C[C@@H](NC(=O)Nc1ccc(C(N)=O)c(F)c1)c1cccc(N2CCOC2=O)c1` [Compound 1.9], at DNMT2, the MST pre-screening entry is listed as “no concentration-dependent MST-shift (no binding)”. For the compound `O=C(NCc1cccc2ncccc12)Nc1ccc(C[C@H]2NC(=O)NC2=O)cc1` [Compound 1.12], the MST pre-screening result at DNMT2 is recorded as “no concentration-dependent MST-shift (no binding)”. As to `Nc1ncnc2cc(C(=O)NCC(=O)Nc3ccc4c(c3)OCCO4)ccc12` [Compound 1.14], the Kd at NSUN6 (setting [1]) was ≥ 116 µM.

In the case of `Cc1ccc(F)c(-n2cc(O)c(C(=O)NNc3cc(O)nc4ncccc34)n2)c1` [Compound 1.16], the MST pre-screening result on DNMT2 was “no concentration-dependent MST-shift (no binding)”.

Take `N[C@H](CCS(N)(=O)=O)C(=O)Nc1ccc(C2CCNCC2)cc1` [Compound 2.3]: the MST pre-screening entry on NSUN6 (NSUN6) was “no concentration-dependent MST-shift (no binding)”. For the compound `CN1CCC[C@@H]1CCC(=O)Nc1c[nH]nc1C(=O)NCC(N)=O` [Compound 2.6], the MST pre-screening result at NSUN6 (NSUN6) is listed as “no concentration-dependent MST-shift (no binding)”. Take `COc1ccc(C(=O)Nc2cccc(CN[C@H](CN)CO)c2)cc1` [Compound 2.8]: the Kd on NSUN6 (setting [1]) amounted to 42 µM. The MST pre-screening entry on NSUN6 (NSUN6) is on record as “concentration-dependent MST-shift (binding)”. Moreover, the “MST result DNMT2 ('off-target'/selectivity)” value on DNMT2 (no MST shift at ligand concentration of up to 300 µM) is “[drawing 33] No binding”. Further, the “selectivity for NSUN6 over DNMT2” value on DNMT2 (selective = no MST shift for the other enzyme up to 300 µM) is reported as “selectivity”. Turning to `O=C([C@@H]1NC[C@@H](O)[C@H]1O)N1CCN([C@@H]2CCN(c3ccccc3)C2=O)CC1` [Compound 2.11], on NSUN6 (NSUN6), the MST pre-screening result is reported as “no concentration-dependent MST-shift (no binding)”. As to `Nc1ncnc2c1ncn2[C@@H]1O[C@H](CSCC[C@H](N)C(=O)O)[C@@H](O)[C@H]1O` [SAH, S-adenosyl-L-homocysteine, reference compound], the Kd on NSUN6 (NSUN6, reference ligand, read-out: KD) turned out to be 9.1 µM; at DNMT2 (MST dose-response curve, DNMT2, reference ligand), 11.8 µM.
